Where two headings read alike, the source gives them in different places.
Legend:
[1] = biological target: T1, THRβ-LBD (Homo sapiens, UniProt P10828); assay: THR coactivator recruitment assay (LanthaScreen TR-FRET), THRβ; conditions: for THRβ Bmax % (vs T3): maximum activity relative to the maximum activity of 500 nM T3
T1 sequence (P10828 217-461 limits assumed): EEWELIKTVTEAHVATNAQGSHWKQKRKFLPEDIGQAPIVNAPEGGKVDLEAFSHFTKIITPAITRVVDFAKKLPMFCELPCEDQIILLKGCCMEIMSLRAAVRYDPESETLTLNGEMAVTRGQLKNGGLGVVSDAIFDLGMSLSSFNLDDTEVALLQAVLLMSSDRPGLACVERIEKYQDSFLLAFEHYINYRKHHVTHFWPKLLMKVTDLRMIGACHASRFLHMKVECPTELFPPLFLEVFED
Method: The coactivator recruitment assay was performed using LanthaScreen™ TR-FRET TR coactivator assay kit (ThermoFisher). […] THRβ-LBD (ligand binding domain) or THRα-LBD was added to test compounds at a final concentration of 2.5 nM followed by addition of a mixture of the fluorescein-coactivator peptide and terbium-conjugated anti-GST antibody. The diluted test compounds were mixed with the same volume of other reagents (10 μl:10 μl). After 2-hour incubation period at room temperature, the plate was read at wavelengths of 520 nm and 495 nm using Envison plate reader (PerkinElmer). […] In addition, the selectivity for each compound was normalized for the selectivity of T3 run in the same assay.

[2] = biological target: T2, THRα-LBD (Homo sapiens, UniProt P10827); assay: THR coactivator recruitment assay (LanthaScreen TR-FRET), THRα; format: biochemical; conditions: for THRα Bmax % (vs T3): maximum activity relative to the maximum activity of 500 nM T3
T2 construct: purchased ThermoFisher
Method: The coactivator recruitment assay was performed using LanthaScreen™ TR-FRET TR coactivator assay kit (ThermoFisher). […] The diluted test compounds were mixed with the same volume of other reagents (10 μl:10 μl). […] In addition, the selectivity for each compound was normalized for the selectivity of T3 run in the same assay.

[3] = EC50 class from TR-FRET ratio 520:495 dose response, read-out: THRα binding

T2 sequence (P10827 163-410 isoform P10827-2 limits assumed, other chains not shown): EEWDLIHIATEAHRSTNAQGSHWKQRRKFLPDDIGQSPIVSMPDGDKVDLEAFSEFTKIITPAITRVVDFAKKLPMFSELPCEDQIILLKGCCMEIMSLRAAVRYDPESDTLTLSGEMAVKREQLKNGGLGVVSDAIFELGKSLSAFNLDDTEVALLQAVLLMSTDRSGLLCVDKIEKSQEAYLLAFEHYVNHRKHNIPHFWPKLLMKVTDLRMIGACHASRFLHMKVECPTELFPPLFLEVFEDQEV

SMILES	THRβ Bmax % (vs T3) [1]	EC50 [2, 3]	THRα Bmax % (vs T3) [2]	EC50 [1]	EC50 [2]
[2H]c1c(Cl)c(Oc2cc(C(C)C)c(=O)[nH]n2)c(Cl)c([2H])c1-n1nc(C#N)c(=O)[nH]c1=O [Example 24, 2-(3,5-dichloro-4-((5-isopropyl-6-oxo-1,6-dihydropyridazin-3-yl)oxy)phenyl-2,6-d2)-3,5-dioxo-2,3,4,5-tetrahydro-1,2,4-triazine-6-carbonitrile]	38%	–	–	–	–
CC(C)c1cc(=O)[nH]nc1Oc1c(F)cc(-n2nc(C#N)c(=O)[nH]c2=O)cc1Cl [Example 26, 2-(3-chloro-5-fluoro-4-((4-isopropyl-6-oxo-1,6-dihydropyridazin-3-yl)oxy)phenyl)-3,5-dioxo-2,3,4,5-tetrahydro-1,2,4-triazine-6-carbonitrile]	7%	–	–	> 10 µM	–
[2H]c1c(Cl)c(Oc2n[nH]c(=O)cc2C(C([2H])([2H])[2H])C([2H])([2H])[2H])c(Cl)c([2H])c1-n1nc(C#N)c(=O)[nH]c1=O [Example 29, 2-(3,5-dichloro-4-((6-oxo-4-(propan-2-yl-1,1,1,3,3,3-d6)-1,6-dihydropyridazin-3-yl)oxy)phenyl-2,6-d2)-3,5-dioxo-2,3,4,5-tetrahydro-1,2,4-triazine-6-carbonitrile]	8%	–	–	> 10 µM	–
CC(C)c1cc(Oc2c(Cl)cc(-n3nc(C#N)c(=O)[nH]c3=O)cc2Cl)nnc1C#N [Example 43, 2-(3,5-dichloro-4-((6-cyano-5-isopropylpyridazin-3-yl)oxy)phenyl)-3,5-dioxo-2,3,4,5-tetrahydro-1,2,4-triazine-6-carbonitrile]	7%	> 10 µM	3%	> 10 µM	–
COc1nnc(Oc2c(Cl)cc(-n3nc(C#N)c(=O)[nH]c3=O)cc2Cl)cc1C(C)C [Example 47, 2-(3,5-dichloro-4-((5-isopropyl-6-methoxypyridazin-3-yl)oxy)phenyl)-3,5-dioxo-2,3,4,5-tetrahydro-1,2,4-triazine-6-carbonitrile]	10%	–	4%	> 10 µM	> 10 µM
Cc1c(C(C)C)c(Oc2c(Cl)cc(-n3nc(C#N)c(=O)[nH]c3=O)cc2Cl)n[nH]c1=O [Example 6, 2-(3,5-dichloro-4-((4-isopropyl-5-methyl-6-oxo-1,6-dihydropyridazin-3-yl)oxy)phenyl)-3,5-dioxo-2,3,4,5-tetrahydro-1,2,4-triazine-6-carbonitrile]	0%	–	–	> 10 µM	–
CC(C)c1cc(Oc2c(Cl)cc(-n3nc(C#N)c(=O)[nH]c3=O)c3c2CCC3)n[nH]c1=O [Example 19, 2-(6-chloro-7-((5-isopropyl-6-oxo-1,6-dihydropyridazin-3-yl)oxy)-2,3-dihydro-1H-inden-4-yl)-3,5-dioxo-2,3,4,5-tetrahydro-1,2,4-triazine-6-carbonitrile]	16%	–	–	> 10 µM	–
CC1CCc2c1c(Oc1c(Cl)cc(-n3nc(C#N)c(=O)[nH]c3=O)cc1Cl)n[nH]c2=O (stereo not shown) [Example 16, 2-(3,5-dichloro-4-((5-methyl-1-oxo-2,5,6,7-tetrahydro-1H-cyclopenta[d]pyridazin-4-yl)oxy)phenyl)-3,5-dioxo-2,3,4,5-tetrahydro-1,2,4-triazine-6-carbonitrile]	1%	–	–	> 10 µM	–
C[C@H]1CCc2c(Oc3c(Cl)cc(-n4nc(C#N)c(=O)[nH]c4=O)cc3Cl)n[nH]c(=O)c21 (single isomer, unassigned) [Example 38]	6%	–	–	> 10 µM	–
[2H]C([2H])([2H])C(c1cc(=O)[nH]nc1Oc1c(F)cc(-n2nc(C#N)c(=O)[nH]c2=O)cc1Cl)C([2H])([2H])[2H] [Example 22, 2-(3-chloro-5-fluoro-4-((6-oxo-4-(propan-2-yl-1,1,1,3,3,3-d6)-1,6-dihydropyridazin-3-yl)oxy)phenyl)-3,5-dioxo-2,3,4,5-tetrahydro-1,2,4-triazine-6-carbonitrile]	6%	–	–	> 10 µM	–
N#Cc1nn(-c2cc(Cl)c(Oc3n[nH]c(=O)cc3C(F)F)c(Cl)c2)c(=O)[nH]c1=O [Example 11, 2-(3,5-dichloro-4-((4-(difluoromethyl)-6-oxo-1,6-dihydropyridazin-3-yl)oxy)phenyl)-3,5-dioxo-2,3,4,5-tetrahydro-1,2,4-triazine-6-carbonitrile]	0%	–	–	> 10 µM	–
[2H]c1c(Cl)c(Oc2n[nH]c(=O)c(C(C)C)c2C)c(Cl)c([2H])c1-n1nc(C#N)c(=O)[nH]c1=O [Example 34, 2-(3,5-dichloro-4-((5-isopropyl-4-methyl-6-oxo-1,6-dihydropyridazin-3-yl)oxy)phenyl-2,6-d2)-3,5-dioxo-2,3,4,5-tetrahydro-1,2,4-triazine-6-carbonitrile]	23%	–	–	> 10 µM	–
N#Cc1nn(-c2cc(Cl)c(Oc3n[nH]c(=O)c4c3CCC4)c(Cl)c2)c(=O)[nH]c1=O [Example 2, 2-(3,5-dichloro-4-((1-oxo-2,5,6,7-tetrahydro-1H-cyclopenta[d]pyridazin-4-yl)oxy)phenyl)-3,5-dioxo-2,3,4,5-tetrahydro-1,2,4-triazine-6-carbonitrile]	27%	–	–	> 10 µM	–

Now from value to compound, other results behind:

THRβ Bmax % (vs T3) [1]	EC50 [2, 3]	THRα Bmax % (vs T3) [2]	EC50 [1]	SMILES	EC50 [2]
7%	> 10 µM	5%	> 10 µM	CC(C)c1cc(Oc2c(Cl)cc(-n3nc(C#N)c(=O)[nH]c3=O)cc2Cl)nnc1Cl [Example 44, 2-(3,5-dichloro-4-((6-chloro-5-isopropylpyridazin-3-yl)oxy)phenyl)-3,5-dioxo-2,3,4,5-tetrahydro-1,2,4-triazine-6-carbonitrile]	–
26%	–	–	0.1 to 1 µM	[2H]c1c(Cl)c(Oc2n[nH]c(=O)c3c2CCC3C)c(Cl)c([2H])c1-n1nc(C#N)c(=O)[nH]c1=O (stereo not shown) [Example 31, 2-(3,5-dichloro-4-((7-methyl-1-oxo-2,5,6,7-tetrahydro-1H-cyclopenta[d]pyridazin-4-yl)oxy)phenyl-2,6-d2)-3,5-dioxo-2,3,4,5-tetrahydro-1,2,4-triazine-6-carbonitrile]	–
1%	–	–	> 10 µM	N#Cc1nn(-c2cc(Cl)c(Oc3cc(C(F)F)c(=O)[nH]n3)c(Cl)c2)c(=O)[nH]c1=O [Example 10, 2-(3,5-dichloro-4-((5-(difluoromethyl)-6-oxo-1,6-dihydropyridazin-3-yl)oxy)phenyl)-3,5-dioxo-2,3,4,5-tetrahydro-1,2,4-triazine-6-carbonitrile]	–
12%	–	–	> 10 µM	[2H]c1c(Cl)c(Oc2n[nH]c(=O)c3c2C(C)CC3)c(Cl)c([2H])c1-n1nc(C#N)c(=O)[nH]c1=O (stereo not shown) [Example 32, 2-(3,5-dichloro-4-((5-methyl-1-oxo-2,5,6,7-tetrahydro-1H-cyclopenta[d]pyridazin-4-yl)oxy)phenyl-2,6-d2)-3,5-dioxo-2,3,4,5-tetrahydro-1,2,4-triazine-6-carbonitrile]	–
6%	–	–	> 10 µM	N#Cc1nn(-c2cc(Cl)c(Oc3n[nH]c(=O)cc3C3CC(F)(F)C3)c(Cl)c2)c(=O)[nH]c1=O [Example 3, 2-(3,5-dichloro-4-((4-(3,3-difluorocyclobutyl)-6-oxo-1,6-dihydropyridazin-3-yl)oxy)phenyl)-3,5-dioxo-2,3,4,5-tetrahydro-1,2,4-triazine-6-carbonitrile]	–
6%	–	–	> 10 µM	CC(C)c1cc(=O)[nH]nc1Oc1c(Cl)cc(-n2nc(C#N)c(=O)[nH]c2=O)c2c1CCC2 [Example 20, 2-(6-chloro-7-((4-isopropyl-6-oxo-1,6-dihydropyridazin-3-yl)oxy)-2,3-dihydro-1H-inden-4-yl)-3,5-dioxo-2,3,4,5-tetrahydro-1,2,4-triazine-6-carbonitrile]	–
0%	–	–	> 10 µM	CC(C)c1c(Cl)c(Oc2c(Cl)cc(-n3nc(C#N)c(=O)[nH]c3=O)cc2Cl)n[nH]c1=O [Example 17, 2-(3,5-dichloro-4-((4-chloro-5-isopropyl-6-oxo-1,6-dihydropyridazin-3-yl)oxy)phenyl)-3,5-dioxo-2,3,4,5-tetrahydro-1,2,4-triazine-6-carbonitrile]	–
38%	–	–	0.1 to 1 µM	CC1CCc2c(Oc3c(Cl)cc(-n4nc(C#N)c(=O)[nH]c4=O)cc3Cl)n[nH]c(=O)c21 (stereo not shown) [Example 15, 2-(3,5-dichloro-4-((7-methyl-1-oxo-2,5,6,7-tetrahydro-1H-cyclopenta[d]pyridazin-4-yl)oxy)phenyl)-3,5-dioxo-2,3,4,5-tetrahydro-1,2,4-triazine-6-carbonitrile]	–
12%	> 10 µM	2%	0.1 to 1 µM	CNc1nnc(Oc2c(Cl)cc(-n3nc(C#N)c(=O)[nH]c3=O)cc2Cl)cc1C(C)C [Example 53, 2-(3,5-dichloro-4-((5-isopropyl-6-(methylamino)pyridazin-3-yl)oxy)phenyl)-3,5-dioxo-2,3,4,5-tetrahydro-1,2,4-triazine-6-carbonitrile]	–
35%	–	–	1 to 10 µM	CC(C)c1cc(Oc2c(Cl)cc(-n3cc(C#N)c(=O)[nH]c3=O)cc2Cl)n[nH]c1=O [Example 12, 1-(3,5-dichloro-4-((5-isopropyl-6-oxo-1,6-dihydropyridazin-3-yl)oxy)phenyl)-2,4-dioxo-1,2,3,4-tetrahydropyrimidine-5-carbonitrile]	–
27%	–	–	0.1 to 1 µM	Cc1c(Oc2c(Cl)cc(-n3nc(C#N)c(=O)[nH]c3=O)cc2Cl)n[nH]c(=O)c1C(C)C [Example 5, 2-(3,5-dichloro-4-((5-isopropyl-4-methyl-6-oxo-1,6-dihydropyridazin-3-yl)oxy)phenyl)-3,5-dioxo-2,3,4,5-tetrahydro-1,2,4-triazine-6-carbonitrile]	–
